Like-named read-outs stand apart in the source and are kept apart here.
Tests used:
[1] = Multiple-ascending dose (MAD) study, once daily for 10 days in healthy subjects: plasma pharmacokinetics; assay type: in vivo, human; details: for AUC extrap / CLss/F / RAUC (accumulation ratio AUC0-tau/AUC0-24h) / RCmax (accumulation ratio Cmax, D10/Cmax, D1) / AUC(0-t) / Cmax / AUC(0-inf) / AUC / Vd/F / half-life: mean (CV %); for AUC(0-t): read-out: AUC0-24 h; for AUC: read-out: AUC0-tau; for Vd/F: read-out: Vss/F; for half-life: read-out: t½ (converted)
Procedure: This was a randomized, double-blind study to assess the safety, tolerability, PK, and PD of multiple oral doses of (R)-compound 1 when administered to healthy adult subjects. The study consisted of 5 cohorts, with up to 12 subjects per cohort. Subjects were randomized in a 3:1 ratio to (R)-compound 1 or placebo once daily for 10 days as follows: • Cohort 1: 2.5 mg (R)-compound 1 or matching placebo (low salt diet in 9 subjects receiving (R)-compound 1 and 3 subjects receiving placebo); • Cohort 2: 5.0 mg (R)-compound 1 or matching placebo (low salt diet in 9 subjects receiving (R)-compound 1 and 3 subjects receiving placebo); • Cohort 3: 1.5 mg (R)-compound 1 or matching placebo (normal salt diet in 9 subjects receiving (R)-compound 1 and 3 subjects receiving placebo); • Cohort 4: 2.5 mg (R)-compound 1 or matching placebo (normal salt diet in 6 subjects receiving (R)-compound 1 and 2 subjects receiving placebo); and • Cohort 5: 0.5 mg (R)-compound 1 or matching placebo (normal salt diet in 9 subjects receiving (R)-compound 1 and 3 subjects receiving placebo).
For each subject, the study consisted of: • A screening period of up to 28 days; • A 5-day inpatient run-in period during which subjects adhered to a controlled, standardized diet and underwent baseline PD assessments; • A 15-day inpatient treatment period, during which subjects received (R)-compound 1 or placebo once daily for 10 days while adhering to a controlled, standardized diet, followed by PK and PD sampling over an additional 5 days; and • A follow-up visit 3 days (1 day) after discharge from the clinical unit. • A cortisol stimulation test (Cohorts 1 and 2 only) and standing aldosterone assessment (all cohorts) were performed on Days 1 and 10. Serial blood samples for PK and PD were obtained prior to and at specified time points over 24 hours after dosing on Day 1 as well as prior to and at specified time points over 120 hours after dosing on Day 10. In addition, blood samples for PK were collected prior to dosing on Days 8 and 9. Urine for PK and PD measurements was collected over 24 hours starting just prior to dosing on Day 1 as well as over 120 hours starting just prior to dosing on Day 10.
Study subjects were dosed with (R)-compound 1 (oral drinking solution) or matching placebo. The doses of (R)-compound 1 administered were 2.5 and 5.0 mg with a low salt diet and 1.5, 2.5, and 0.5 mg with a normal salt diet.
(only for (R)-compound 1).

[2] = Renal impairment study, single 10 mg dose: pharmacokinetics; assay type: in vivo, human; details: for geometric mean ratio AUC(0-inf) versus control group / geometric mean ratio AUC(0-last) versus control group / geometric mean ratio Cmax versus control group: single 10 mg dose
Procedure: Of particular relevance to study subjects who will be enrolled in this trial is the investigation of the pharmacokinetics of (R)-compound 1 in individuals with varying degrees of renal impairment. The PK profiles of (R)-compound 1 and its primary metabolite following administration of a single 10 mg dose in individuals with renal impairment were qualitatively and quantitatively similar to those measured in healthy subjects. […] There were no noteworthy increases in systemic exposure or decrease in clearance in individuals with impaired renal function. Dose adjustment of (R)-compound 1 based on renal function was therefore not necessary.
One subject with end stage disease experienced an unrelated SAE of metabolic encephalopathy and a moderate unrelated adverse event (AE) of tremor. One control subject experienced a mild AE of diarrhea, which was considered to be related to study drug by the Investigator. […] It is not necessary to dose adjust (R)-compound 1 for patients with renal impairment.
There was no substantial impact of renal impairment on the PK of (R)-compound 1 based on pair-wise comparisons and no strong or nonlinear relationship between estimated GFR and PK parameters was observed. Findings for the primary metabolite of (R)-compound 1 was similar to those for parent with no clinically meaningful differences observed across groups. The percent of the dose excreted renally was approximately 12% in the control group and the moderate to severe renal impairment group. […] Based on the results of this study, dose adjustment of (R)-compound 1 in renally impaired individuals is not considered necessary.

[3] = 0.5 mg QD, normal salt diet, Day 10
[4] = 1.5 mg QD, normal salt diet, Day 10
[5] = 2.5 mg QD, low salt diet, Day 10
[6] = 2.5 mg QD, normal salt diet, Day 10
[7] = 5.0 mg QD, low salt diet, Day 10
[8] = human, plasma, oral, 0.5 mg, 0.5 mg QD, normal salt diet, Day 10
[9] = human, plasma, oral, 1.5 mg, 1.5 mg QD, normal salt diet, Day 10
[10] = human, plasma, oral, 2.5 mg, 2.5 mg QD, low salt diet, Day 10
[11] = human, plasma, oral, 2.5 mg, 2.5 mg QD, normal salt diet, Day 10
[12] = human, plasma, oral, 5 mg, 5.0 mg QD, low salt diet, Day 10
[13] = moderate to severe renal impairment group

Structure (SMILES): CCC(=O)N[C@@H]1CCCc2c(-c3ccc4c(c3)CCC(=O)N4C)cncc21 [(R)-Compound 1, (R)—N-(4-(1-methyl-2-oxo-1,2,3,4-tetrahydroquinolin-6-yl)-5,6,7,8-tetrahydroisoquinolin-8-yl)propionamide]
- AUC extrap [1, 3]: 6.325 (42.2) %
- CLss/F [1, 3]: 3.421 (29.4) L/h
- RAUC (accumulation ratio AUC0-tau/AUC0-24h) ([1]; 0.5 mg QD, normal salt diet): 1.960 (13.9)
- RCmax (accumulation ratio Cmax, D10/Cmax, D1) ([1]; 0.5 mg QD, normal salt diet): 1.827 (14.2)
- AUC extrap [1, 4]: 6.106 (65.9) %
- CLss/F [1, 4]: 3.350 (27.5) L/h
- RAUC (accumulation ratio AUC0-tau/AUC0-24h) ([1]; 1.5 mg QD, normal salt diet): 2.307 (13.8)
- RCmax (accumulation ratio Cmax, D10/Cmax, D1) ([1]; 1.5 mg QD, normal salt diet): 2.132 (11.2)
- AUC extrap [1, 5]: 4.519 (45.4) %
- CLss/F [1, 5]: 3.277 (16.1) L/h
- RAUC (accumulation ratio AUC0-tau/AUC0-24h) ([1]; 2.5 mg QD, low salt diet): 2.147 (7.4)
- RCmax (accumulation ratio Cmax, D10/Cmax, D1) ([1]; 2.5 mg QD, low salt diet): 1.965 (15.1)
- AUC extrap [1, 6]: 3.832 (85.6) %
- CLss/F [1, 6]: 4.315 (36.9) L/h
- RAUC (accumulation ratio AUC0-tau/AUC0-24h) ([1]; 2.5 mg QD, normal salt diet): 1.994 (22.3)
- RCmax (accumulation ratio Cmax, D10/Cmax, D1) ([1]; 2.5 mg QD, normal salt diet): 1.706 (34.1)
- AUC extrap [1, 7]: 5.397 (52.6) %
- CLss/F [1, 7]: 3.207 (26.3) L/h
- RAUC (accumulation ratio AUC0-tau/AUC0-24h) ([1]; 5.0 mg QD, low salt diet): 2.507 (10.2)
- RCmax (accumulation ratio Cmax, D10/Cmax, D1) ([1]; 5.0 mg QD, low salt diet): 2.424 (13.6)
- AUC(0-t) ([1]; human, plasma, oral, 0.5 mg, 0.5 mg QD, normal salt diet, Day 1): 79.5 ng·h/mL
- Cmax ([1]; human, plasma, oral, 0.5 mg, 0.5 mg QD, normal salt diet, Day 1, read-out: Cmax, D 1): 5.36 ng/mL
- Tmax ([1]; human, plasma, oral, 0.5 mg, 0.5 mg QD, normal salt diet, Day 1, median (min, max), read-out: Tmax, D 1): 2 h
- AUC(0-inf) [1, 8]: 351 ng·h/mL
- AUC [1, 8]: 155 ng·h/mL
- Cmax ([1]; human, plasma, oral, 0.5 mg, 0.5 mg QD, normal salt diet, Day 10, read-out: Cmax, D 10): 9.72 ng/mL
- Vd/F [1, 8]: 152 L
- Tmax ([1]; human, plasma, oral, 0.5 mg, 0.5 mg QD, normal salt diet, Day 10, median (min, max), read-out: Tmax, D 10): 2 h
- AUC(0-t) ([1]; human, plasma, oral, 1.5 mg, 1.5 mg QD, normal salt diet, Day 1): 205 ng·h/mL
- Tmax ([1]; human, plasma, oral, 1.5 mg, 1.5 mg QD, normal salt diet, Day 1, median (min, max), read-out: Tmax, D 1): 2.5 h
- AUC(0-inf) [1, 9]: 1110 ng·h/mL
- AUC [1, 9]: 480 ng·h/mL
- Vd/F [1, 9]: 137 L
- Tmax ([1]; human, plasma, oral, 1.5 mg, 1.5 mg QD, normal salt diet, Day 10, median (min, max), read-out: Tmax, D 10): 2.5 h
- AUC(0-t) ([1]; human, plasma, oral, 2.5 mg, 2.5 mg QD, low salt diet, Day 1): 366 ng·h/mL
- Tmax ([1]; human, plasma, oral, 2.5 mg, 2.5 mg QD, low salt diet, Day 1, median (min, max), read-out: Tmax, D 1): 3 h
- AUC(0-inf) [1, 10]: 1490 ng·h/mL
- AUC [1, 10]: 783 ng·h/mL
- Cmax ([1]; human, plasma, oral, 2.5 mg, 2.5 mg QD, low salt diet, Day 10, read-out: Cmax, D 10): 54 ng/mL
- Vd/F [1, 10]: 135 L
- Tmax ([1]; human, plasma, oral, 2.5 mg, 2.5 mg QD, low salt diet, Day 10, median (min, max), read-out: Tmax, D 10): 2 h
- AUC(0-t) ([1]; human, plasma, oral, 2.5 mg, 2.5 mg QD, normal salt diet, Day 1): 344 ng·h/mL
- Tmax ([1]; human, plasma, oral, 2.5 mg, 2.5 mg QD, normal salt diet, Day 1, median (min, max), read-out: Tmax, D 1): 3 h
- AUC(0-inf) [1, 11]: 1460 ng·h/mL
- AUC [1, 11]: 677 ng·h/mL
- Vd/F [1, 11]: 150 L
- Tmax ([1]; human, plasma, oral, 2.5 mg, 2.5 mg QD, normal salt diet, Day 10, median (min, max), read-out: Tmax, D 10): 3 h
- AUC(0-t) ([1]; human, plasma, oral, 5 mg, 5.0 mg QD, low salt diet, Day 1): 658 ng·h/mL
- AUC(0-inf) [1, 12]: 3480 ng·h/mL
- AUC [1, 12]: 1660 ng·h/mL
- Vd/F [1, 12]: 134 L
- Tmax ([1]; human, plasma, oral, 5 mg, 5.0 mg QD, low salt diet, Day 10, median (min, max), read-out: Tmax, D 10): 3 h
- Tmax ([1]; human, plasma, oral, 0.5 to 5 mg QD, read-out: median Tmax, range across treatment groups): 0.98 to 4 h
- half-life ([1]; human, plasma, oral, 1.5 mg QD, normal salt diet, Day 10): 1800 min
- half-life ([1]; human, plasma, oral, 2.5 mg QD, normal salt diet, Day 10): 1530 min
- half-life ([1]; human, plasma, oral, 5.0 mg QD, low salt diet, Day 10): 1760 min
- half-life at 10 days ([1]; human, plasma, oral, approximately, read-out: mean t½, range): 1560 to 1860 min
- time after dosing within which peak concentrations typically observed ([1]; oral administration): ≤ 4 h
- percent of the dose excreted renally ([2]; control group): approximately 12%
- renal excretion ([2]; kidney failure group): negligible renal excretion
- geometric mean ratio AUC(0-inf) versus control group ([2]; kidney failure group): 0.68
- geometric mean ratio AUC(0-last) versus control group ([2]; kidney failure group): 0.68
- geometric mean ratio Cmax versus control group ([2]; kidney failure group): 0.88
- percent of the dose excreted renally [2, 13]: approximately 12%
- geometric mean ratio AUC(0-inf) versus control group [2, 13]: 1.21
- geometric mean ratio AUC(0-last) versus control group [2, 13]: 1.17
- geometric mean ratio Cmax versus control group [2, 13]: 1.02
